Experimental data from the NIST ThermoML archive (doi:10.1016/j.tca.2009.10.001).
± gives the expanded uncertainty stated by the source.

Assay: xn = mol fraction of the nth substance listed
Conditions: 101 kPa, Liquid; for viscosity: Capillary tube (Ostwald / Ubbelohde) method; for speed of sound: Linear variable-path acoustic interferometer; for mass density: Pycnometric method

CC#N [acetonitrile] + Cc1ccccc1
Conditions	mass density, 298.15 K [kg/m3]	mass density, 303.15 K [kg/m3]	mass density, 308.15 K [kg/m3]	speed of sound, 298.15 K [m/s]	speed of sound, 303.15 K [m/s]	speed of sound, 308.15 K [m/s]	viscosity, 298.15 K [mPa·s]	viscosity, 303.15 K [mPa·s]	viscosity, 308.15 K [mPa·s]
x2 = 0	775.3 ± 0.3	769.9 ± 0.3	764.7 ± 0.4	1271.3 ± 1.8	1251.9 ± 1.8	1231.7 ± 1.7	0.3696 ± 0.0053	0.3554 ± 0.0052	0.3414 ± 0.0052
x2 = 0.0506	784.6 ± 0.3	779 ± 0.3	773.6 ± 0.4	1273.8 ± 1.8	1253.9 ± 1.7	1233.4 ± 1.7	0.3809 ± 0.0053	0.3653 ± 0.0053	0.3503 ± 0.0052
x2 = 0.1082	794.1 ± 0.3	788.4 ± 0.3	782.9 ± 0.3	1276.5 ± 1.7	1256.3 ± 1.7	1235.5 ± 1.7	0.394 ± 0.0053	0.3772 ± 0.0053	0.3609 ± 0.0052
x2 = 0.1704	803.3 ± 0.3	797.5 ± 0.3	792 ± 0.3	1279.3 ± 1.7	1259 ± 1.7	1238 ± 1.7	0.408 ± 0.0054	0.39 ± 0.0053	0.3729 ± 0.0052
x2 = 0.2421	812.6 ± 0.3	806.6 ± 0.3	801.4 ± 0.3	1282.4 ± 1.7	1261.8 ± 1.7	1240.9 ± 1.7	0.4241 ± 0.0054	0.4045 ± 0.0053	0.3864 ± 0.0053
x2 = 0.3228	821.8 ± 0.3	815.7 ± 0.3	810.5 ± 0.3	1285.7 ± 1.7	1265 ± 1.7	1244.3 ± 1.6	0.4423 ± 0.0054	0.4211 ± 0.0053	0.4017 ± 0.0053
x2 = 0.4163	830.7 ± 0.3	824.7 ± 0.3	819.7 ± 0.3	1289.2 ± 1.6	1268.2 ± 1.6	1247.8 ± 1.6	0.4625 ± 0.0055	0.44 ± 0.0054	0.4193 ± 0.0053
x2 = 0.5288	839.6 ± 0.3	833.8 ± 0.3	828.7 ± 0.3	1292 ± 1.6	1270.9 ± 1.6	1250.7 ± 1.6	0.486 ± 0.0055	0.4614 ± 0.0054	0.4389 ± 0.0053
x2 = 0.6577	847.5 ± 0.3	841.9 ± 0.3	836.9 ± 0.3	1294.5 ± 1.6	1273.6 ± 1.6	1253.5 ± 1.6	0.5098 ± 0.0055	0.4834 ± 0.0054	0.4591 ± 0.0053
x2 = 0.8089	854.6 ± 0.3	849.3 ± 0.3	844.6 ± 0.3	1296.7 ± 1.6	1275.9 ± 1.5	1256.3 ± 1.5	0.5353 ± 0.0055	0.5069 ± 0.0054	0.4817 ± 0.0054
